# Values quoted from earlier work, collected in US20240139257A1, “METHODS AND COMPOSITIONS FOR ALOPECIA TREATMENT USING FIBROBLASTS AND FIBROBLAST-DERIVED PRODUCTS” (FIGENE, LLC, priority 2021, published 2024).
# Tests used:
# [1] = test system: interferon (IFN)-gamma mRNA; conditions: scalp biopsies, AA patients, after successful DCP treatment; still above the constitutive level found in controls
# IL-2 mRNA = conditions: scalp biopsies, AA patients, after successful DCP treatment
# IL-8 mRNA = conditions: scalp biopsies, AA patients, after successful DCP treatment
# IL-10 mRNA = conditions: scalp biopsies, AA patients, after successful DCP treatment
# [2] = test system: tumor necrosis factor-alpha mRNA; conditions: scalp biopsies, AA patients, after successful DCP treatment
smiles,measurement,setting,value
"O=c1c(-c2ccccc2)c1-c1ccccc1 [DCP, diphenylcyclopropenone]",IFN-gamma expression after DCP treatment,[1],reduced
same,mRNA expression of IL-2 after DCP treatment,IL-2 mRNA,increased
same,mRNA expression of IL-8 after DCP treatment,IL-8 mRNA,increased
same,mRNA expression of IL-10 after DCP treatment,IL-10 mRNA,increased
same,mRNA expression of tumor necrosis factor-alpha after DCP treatment,[2],increased
same,Therapeutic benefit of topical immunotherapy in AA patients,alopecia areata (AA),some therapeutic benefits
